Assay [1] deals with proteins of HEK293T cells transiently overexpressing caspase-6 (Homo sapiens, UniProt Q9Y224). It counts as cell-based. The following applies: Probe; protein C14orf166 Q9Y224.
Assay [2] deals with T1, proteins of HEK293T cells transiently overexpressing caspase-6 (Homo sapiens, UniProt Q9NQC3).
T1 sequence (Q9NQC3 1-1192): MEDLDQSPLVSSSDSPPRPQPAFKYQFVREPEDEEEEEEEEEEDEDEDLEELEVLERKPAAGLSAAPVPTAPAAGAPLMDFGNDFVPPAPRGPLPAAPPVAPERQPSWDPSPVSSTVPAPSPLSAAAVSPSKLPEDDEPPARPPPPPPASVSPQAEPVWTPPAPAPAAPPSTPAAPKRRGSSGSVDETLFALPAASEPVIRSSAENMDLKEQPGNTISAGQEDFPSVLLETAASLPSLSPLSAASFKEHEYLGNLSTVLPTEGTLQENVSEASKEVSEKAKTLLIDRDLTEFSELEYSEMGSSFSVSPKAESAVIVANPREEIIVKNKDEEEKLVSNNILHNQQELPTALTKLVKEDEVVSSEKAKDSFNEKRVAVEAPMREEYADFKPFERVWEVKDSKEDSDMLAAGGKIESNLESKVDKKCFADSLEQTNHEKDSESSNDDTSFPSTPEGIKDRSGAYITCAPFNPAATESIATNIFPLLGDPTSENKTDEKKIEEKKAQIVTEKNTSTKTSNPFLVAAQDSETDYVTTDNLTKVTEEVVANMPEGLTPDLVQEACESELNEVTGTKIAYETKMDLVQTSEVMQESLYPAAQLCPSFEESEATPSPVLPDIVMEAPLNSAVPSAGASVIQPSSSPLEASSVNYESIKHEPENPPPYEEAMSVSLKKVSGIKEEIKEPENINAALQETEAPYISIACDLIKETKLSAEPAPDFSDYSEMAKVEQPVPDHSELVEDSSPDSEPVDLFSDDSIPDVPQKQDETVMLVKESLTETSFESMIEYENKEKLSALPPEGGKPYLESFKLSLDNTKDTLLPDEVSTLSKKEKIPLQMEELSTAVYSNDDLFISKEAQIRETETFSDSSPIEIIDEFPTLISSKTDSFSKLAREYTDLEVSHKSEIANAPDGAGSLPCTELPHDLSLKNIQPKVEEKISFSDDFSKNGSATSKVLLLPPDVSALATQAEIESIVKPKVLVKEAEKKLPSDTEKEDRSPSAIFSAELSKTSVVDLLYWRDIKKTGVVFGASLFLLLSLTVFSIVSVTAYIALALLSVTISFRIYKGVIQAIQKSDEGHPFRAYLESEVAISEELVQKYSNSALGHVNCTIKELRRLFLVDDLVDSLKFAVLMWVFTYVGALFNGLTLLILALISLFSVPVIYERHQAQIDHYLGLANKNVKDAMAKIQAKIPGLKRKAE
It counts as cell-based. The following applies: protein RTN4 (Q9NQC3), analysis C6.

For assay [3], the target named is proteins of HEK293T cells transiently overexpressing caspase-6 (Homo sapiens, UniProt Q9BVP2). It counts as cell-based. The conditions noted are these: exp_ref Probe; protein GNL3 (Q9BVP2); analysis C6.
Sequence of proteins of HEK293T cells transiently overexpressing caspase-6 (Homo sapiens, UniProt Q9BVP2) (Q9BVP2 whole entry): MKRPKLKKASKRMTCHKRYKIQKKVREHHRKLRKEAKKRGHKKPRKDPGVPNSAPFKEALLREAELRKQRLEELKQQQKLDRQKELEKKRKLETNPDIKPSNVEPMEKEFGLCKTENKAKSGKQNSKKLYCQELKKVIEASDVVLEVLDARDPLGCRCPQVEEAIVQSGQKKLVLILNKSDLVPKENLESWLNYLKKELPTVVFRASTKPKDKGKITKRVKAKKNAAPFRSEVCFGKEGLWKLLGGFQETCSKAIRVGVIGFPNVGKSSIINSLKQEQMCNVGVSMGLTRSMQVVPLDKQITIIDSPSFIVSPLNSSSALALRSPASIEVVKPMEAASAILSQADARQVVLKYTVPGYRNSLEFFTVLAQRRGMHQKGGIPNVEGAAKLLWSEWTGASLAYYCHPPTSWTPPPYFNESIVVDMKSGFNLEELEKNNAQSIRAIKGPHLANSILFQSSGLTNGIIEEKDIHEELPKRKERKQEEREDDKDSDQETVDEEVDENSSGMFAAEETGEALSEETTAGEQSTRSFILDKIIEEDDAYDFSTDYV
The target in assay [4] is proteins of HEK293T cells transiently overexpressing caspase-6 (Homo sapiens, UniProt P38646). Format: cell-based. The following applies: protein HSPA9 (P38646).
Sequence of proteins of HEK293T cells transiently overexpressing caspase-6 (Homo sapiens, UniProt P38646) (P38646 47-679): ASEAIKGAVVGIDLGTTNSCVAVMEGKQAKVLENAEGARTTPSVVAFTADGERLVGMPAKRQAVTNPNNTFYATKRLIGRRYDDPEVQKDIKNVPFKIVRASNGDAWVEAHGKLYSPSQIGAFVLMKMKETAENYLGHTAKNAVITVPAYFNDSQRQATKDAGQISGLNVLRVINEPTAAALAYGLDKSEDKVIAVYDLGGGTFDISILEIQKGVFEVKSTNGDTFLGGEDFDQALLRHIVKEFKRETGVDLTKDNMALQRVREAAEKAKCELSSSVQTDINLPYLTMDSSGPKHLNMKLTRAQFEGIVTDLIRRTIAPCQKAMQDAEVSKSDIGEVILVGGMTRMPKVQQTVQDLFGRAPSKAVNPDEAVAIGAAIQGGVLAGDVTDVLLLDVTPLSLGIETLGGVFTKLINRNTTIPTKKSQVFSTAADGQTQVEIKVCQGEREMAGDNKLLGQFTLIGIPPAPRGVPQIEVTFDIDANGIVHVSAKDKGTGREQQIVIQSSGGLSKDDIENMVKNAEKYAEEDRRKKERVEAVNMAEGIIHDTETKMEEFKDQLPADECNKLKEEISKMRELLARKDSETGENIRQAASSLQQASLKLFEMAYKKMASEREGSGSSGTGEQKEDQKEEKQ
Assay [5] has as its target proteins of HEK293T cells transiently overexpressing caspase-6 (Homo sapiens, UniProt Q13428). Format: cell-based. The conditions noted are these: exp_ref Probe; protein TCOF1 (Q13428); analysis C6.
Assay [6] addresses proteins of HEK293T cells transiently overexpressing caspase-6 (Homo sapiens, UniProt Q9NVX2). It counts as cell-based. The conditions noted are these: Probe; protein NLE1 Q9NVX2.
For assay [7], the target named is proteins of HEK293T cells transiently overexpressing caspase-6 (Homo sapiens, UniProt P17844). It counts as cell-based. The following applies: exp_ref Probe; protein DDX5 (P17844); analysis C6.
Sequence of proteins of HEK293T cells transiently overexpressing caspase-6 (Homo sapiens, UniProt P17844) (P17844 whole entry): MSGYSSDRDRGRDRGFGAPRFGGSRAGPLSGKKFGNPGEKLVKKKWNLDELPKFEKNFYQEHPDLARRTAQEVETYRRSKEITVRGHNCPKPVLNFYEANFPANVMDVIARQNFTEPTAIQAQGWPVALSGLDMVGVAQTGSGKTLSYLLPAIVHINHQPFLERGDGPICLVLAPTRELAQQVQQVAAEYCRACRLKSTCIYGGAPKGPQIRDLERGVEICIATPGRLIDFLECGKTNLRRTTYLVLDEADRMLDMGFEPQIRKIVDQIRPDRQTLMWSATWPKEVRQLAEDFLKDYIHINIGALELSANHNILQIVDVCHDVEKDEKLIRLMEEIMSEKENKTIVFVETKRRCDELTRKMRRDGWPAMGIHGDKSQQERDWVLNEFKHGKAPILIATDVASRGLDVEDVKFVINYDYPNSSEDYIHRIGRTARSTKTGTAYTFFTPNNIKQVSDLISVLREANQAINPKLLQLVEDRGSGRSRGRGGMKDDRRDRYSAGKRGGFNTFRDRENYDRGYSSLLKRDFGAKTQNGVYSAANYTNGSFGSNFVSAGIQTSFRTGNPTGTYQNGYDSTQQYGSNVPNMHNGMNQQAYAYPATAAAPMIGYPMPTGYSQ
Assay [8] has as its target proteins of HEK293T cells transiently overexpressing caspase-6 (Homo sapiens, UniProt P05141). It counts as cell-based. The conditions noted are these: exp_ref Probe; protein SLC25A5 (P05141); analysis C6.
The target of a further assay is caspase-6 (Homo sapiens, UniProt P55212). Briefly: biochemical.
Sequence of caspase-6 (P55212 194-293): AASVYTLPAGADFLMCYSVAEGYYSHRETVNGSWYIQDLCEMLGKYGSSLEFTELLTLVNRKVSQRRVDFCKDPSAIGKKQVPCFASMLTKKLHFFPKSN
Sequence of caspase-6 (P55212 30-179): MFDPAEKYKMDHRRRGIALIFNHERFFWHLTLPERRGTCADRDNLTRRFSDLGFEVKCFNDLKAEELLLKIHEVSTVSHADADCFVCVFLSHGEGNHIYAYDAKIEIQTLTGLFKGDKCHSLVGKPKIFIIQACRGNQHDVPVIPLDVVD
The test system of another assay is human caspases C1–C10. Briefly: Caspase selectivity assays (Eurofins/Panlabs), 10 µM 3a. It counts as biochemical. The conditions noted are these: 3a at 10 μM.
In a further assay the target is caspase-2 (C2) (Homo sapiens, UniProt P42575). The assay is described as follows: Caspase-2 biochemical activity assay with fluorogenic substrate. From the text: Error bars represent the standard deviation of thre replicate measurements. […] Activity measured by the cleavage of aminofluorocoumarin-labeled peptides (see the Supporting Information for sequences). C = caspase.
Sequence of caspase-2 (C2) (P42575 whole entry): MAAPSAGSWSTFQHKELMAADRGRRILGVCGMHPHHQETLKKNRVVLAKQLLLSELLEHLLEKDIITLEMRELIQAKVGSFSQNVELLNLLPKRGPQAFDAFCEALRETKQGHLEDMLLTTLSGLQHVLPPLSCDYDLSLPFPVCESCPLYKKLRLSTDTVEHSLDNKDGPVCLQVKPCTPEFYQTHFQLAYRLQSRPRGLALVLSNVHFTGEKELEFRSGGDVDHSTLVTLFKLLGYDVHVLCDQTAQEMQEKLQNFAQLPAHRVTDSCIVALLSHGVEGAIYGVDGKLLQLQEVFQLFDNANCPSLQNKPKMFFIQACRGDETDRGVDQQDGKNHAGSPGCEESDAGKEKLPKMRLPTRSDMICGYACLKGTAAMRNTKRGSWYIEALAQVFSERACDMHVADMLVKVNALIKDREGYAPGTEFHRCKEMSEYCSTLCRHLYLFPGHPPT

Sequence of proteins of HEK293T cells transiently overexpressing caspase-6 (Homo sapiens, UniProt Q9Y224) (Q9Y224 whole entry): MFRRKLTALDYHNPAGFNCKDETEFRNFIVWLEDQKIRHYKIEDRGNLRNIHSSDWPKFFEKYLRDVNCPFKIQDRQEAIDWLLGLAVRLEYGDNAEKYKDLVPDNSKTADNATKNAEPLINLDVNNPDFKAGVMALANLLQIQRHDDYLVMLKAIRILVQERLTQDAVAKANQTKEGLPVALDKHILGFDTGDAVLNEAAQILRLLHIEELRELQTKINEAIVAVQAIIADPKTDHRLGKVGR
Sequence of proteins of HEK293T cells transiently overexpressing caspase-6 (Homo sapiens, UniProt Q9NVX2) (Q9NVX2 whole entry): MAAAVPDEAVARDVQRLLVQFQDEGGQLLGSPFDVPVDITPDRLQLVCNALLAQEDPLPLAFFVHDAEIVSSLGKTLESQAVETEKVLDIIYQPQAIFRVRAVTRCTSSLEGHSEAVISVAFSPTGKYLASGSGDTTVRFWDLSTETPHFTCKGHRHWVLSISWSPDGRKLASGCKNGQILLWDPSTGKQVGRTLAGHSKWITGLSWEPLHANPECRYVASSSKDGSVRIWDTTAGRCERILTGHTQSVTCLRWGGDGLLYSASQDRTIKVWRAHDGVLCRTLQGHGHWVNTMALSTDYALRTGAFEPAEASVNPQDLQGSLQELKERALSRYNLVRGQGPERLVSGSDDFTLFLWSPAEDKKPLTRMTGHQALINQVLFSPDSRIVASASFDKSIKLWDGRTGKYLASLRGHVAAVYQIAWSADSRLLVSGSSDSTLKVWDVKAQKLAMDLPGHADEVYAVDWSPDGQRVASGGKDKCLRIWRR
Sequence of proteins of HEK293T cells transiently overexpressing caspase-6 (Homo sapiens, UniProt Q13428) (Q13428 whole entry): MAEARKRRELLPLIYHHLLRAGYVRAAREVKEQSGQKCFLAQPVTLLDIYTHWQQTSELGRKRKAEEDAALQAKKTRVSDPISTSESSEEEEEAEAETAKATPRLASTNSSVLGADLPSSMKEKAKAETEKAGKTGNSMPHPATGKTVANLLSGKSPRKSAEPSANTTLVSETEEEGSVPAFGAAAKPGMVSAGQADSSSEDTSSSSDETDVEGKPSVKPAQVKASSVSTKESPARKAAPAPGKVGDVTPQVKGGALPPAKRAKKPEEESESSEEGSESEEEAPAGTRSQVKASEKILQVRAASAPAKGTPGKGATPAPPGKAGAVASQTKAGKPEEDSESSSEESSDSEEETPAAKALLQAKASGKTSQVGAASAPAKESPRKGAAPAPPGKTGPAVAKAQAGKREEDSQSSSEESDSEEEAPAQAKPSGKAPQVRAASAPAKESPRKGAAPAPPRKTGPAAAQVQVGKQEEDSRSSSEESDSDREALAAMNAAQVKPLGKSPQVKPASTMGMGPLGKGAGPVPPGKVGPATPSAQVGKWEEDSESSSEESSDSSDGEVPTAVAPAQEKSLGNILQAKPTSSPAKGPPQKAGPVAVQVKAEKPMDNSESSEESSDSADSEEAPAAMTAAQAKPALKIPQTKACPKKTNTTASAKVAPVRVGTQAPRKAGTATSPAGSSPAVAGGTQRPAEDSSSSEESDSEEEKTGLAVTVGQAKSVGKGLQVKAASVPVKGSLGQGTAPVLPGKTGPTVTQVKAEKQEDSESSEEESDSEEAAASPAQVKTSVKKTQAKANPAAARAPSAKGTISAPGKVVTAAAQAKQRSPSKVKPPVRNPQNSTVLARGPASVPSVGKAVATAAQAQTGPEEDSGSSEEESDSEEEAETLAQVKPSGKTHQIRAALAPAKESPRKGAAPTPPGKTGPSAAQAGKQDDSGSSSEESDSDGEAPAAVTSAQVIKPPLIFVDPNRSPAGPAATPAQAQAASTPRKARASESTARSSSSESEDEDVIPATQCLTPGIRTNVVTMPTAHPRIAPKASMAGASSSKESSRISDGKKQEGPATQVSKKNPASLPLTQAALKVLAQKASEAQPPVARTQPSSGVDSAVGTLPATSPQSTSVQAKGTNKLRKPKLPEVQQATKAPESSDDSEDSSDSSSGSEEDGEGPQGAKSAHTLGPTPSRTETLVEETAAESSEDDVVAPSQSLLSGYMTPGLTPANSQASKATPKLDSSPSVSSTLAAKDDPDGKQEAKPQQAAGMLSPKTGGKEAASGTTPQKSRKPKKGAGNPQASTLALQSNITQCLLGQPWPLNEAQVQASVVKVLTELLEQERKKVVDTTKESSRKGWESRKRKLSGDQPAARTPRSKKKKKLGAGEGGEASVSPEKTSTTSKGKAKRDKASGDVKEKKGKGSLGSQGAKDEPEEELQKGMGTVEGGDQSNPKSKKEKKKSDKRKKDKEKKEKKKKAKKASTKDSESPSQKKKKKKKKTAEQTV

On to `C#CCOc1ccc([C@@H]2C[C@@H](C(=O)Nc3ccc(OC(F)(F)F)cc3)CN(S(=O)(=O)C=C)C2)cc1` (relative stereo) [13-t], for which the enrich.exp.med in assay [1] is recorded as -1.579; in assay [2] (exp_ref Probe), 2.686; in [3] it was 0.541; in assay [4] (exp_ref Probe, analysis C6), 0.7965; in assay [5], 0.9444; in assay [6], -1.769. In addition, the enrich.exp.med in assay [7] is reported as -0.0188; in [8] it was 0.9373. The enrich.exp.med.lin turned out to be 6.436 in assay [2] (Expt Probe) and 1.737 in [4]. In addition, the enrich.exp.med.log2 in [2] (Expt Probe) was found to be 2.686; in assay [4], 0.7965. On caspase-6, this compound had a concentration for half-maximal inhibition (IC50) of 48 ± 2 nM.

Consider `C=CS(=O)(=O)N1C[C@H](C(=O)Nc2ccc(OC(F)(F)F)cc2)C[C@@H](c2ccccc2)C1` [3a], for which the “effect on the other caspase isoforms (in words)” value in the assay on human caspases C1–C10 is “little, if any, effect”. Further, the “activity against C2 (in words)” value on caspase-2 (C2) is on record as “lack of activity”.

For the origin of these results see PMC10176470, “Engaging a Non-catalytic Cysteine Residue Drives Potent and Selective Inhibition of Caspase-6” (Journal of the American Chemical Society, 2023).
